Source: the supplement of paper PMC8671470

Legend:
Details in all cases: 72 h
BV-173 [1] = test: cell viability (% survival relative to DMSO control, bortezomib = 0%); higher = less cytotoxic
Method in brief: (§1)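 Fifteen myeloid leukaemia cell lines (10 AML, 5 CML) were seeded at a density titrated to the linear growth range. They went into 384-well plates with compounds pre-printed at 1, 10, 100, 1000 or 10000 nM in duplicate. After 72 h at 37 °C with 5% CO2, viability was read by CellTiter-Glo luminescence. Values are percent survival, with vehicle set to 100% and a 10 µM positive control to 0%, averaged over the duplicates.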

KG-1 [2] = test: as above
Method in brief: as §1

K-562 [3] = test: as above
Method in brief: as §1

MOLM-13 [4] = test: as above
Method in brief: as §1

ML-2 [5] = test: as above
Method in brief: as §1

Mono-Mac-6 [6] = test: as above
Method in brief: as §1

KU-812 [7] = test: as above
Method in brief: as §1

KCL-22 [8] = test: as above
Method in brief: as §1

MV4-11 [9] = test: as above
Method in brief: as §1

SHI-1 [10] = test: as above
Method in brief: as §1

THP-1 [11] = test: as above
Method in brief: as §1

NOMO-1 [12] = test: as above
Method in brief: as §1

LAMA-84 [13] = test: as above
Method in brief: as §1

HL-60 [14] = test: as above
Method in brief: as §1

HEL [15] = test: as above
Method in brief: as §1

BV-173 [16] = tested on: BV-173
Method in brief: (§2)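 For the IC50, dose–response curves were fitted with a log-logistic model. The data came from fifteen myeloid leukaemia cell lines grown in RPMI 1640 at densities in the linear growth range and incubated in 384-well plates for 72 h at 37 °C under 5% CO2. Doses were five tenfold steps from 1 to 10,000 nM in duplicate, and luminescent ATP viability was normalised to vehicle and to a positive control at 10 µM before four-parameter fitting.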

KG-1 [17] = tested on: KG-1
Method in brief: as §2

K-562 [18] = tested on: K-562
Method in brief: as §2

MOLM-13 [19] = tested on: MOLM-13
Method in brief: as §2

ML-2 [20] = tested on: ML-2
Method in brief: as §2

Mono-Mac-6 [21] = tested on: Mono-Mac-6
Method in brief: as §2

KU-812 [22] = tested on: KU-812
Method in brief: as §2

KCL-22 [23] = tested on: KCL-22
Method in brief: as §2

MV4-11 [24] = tested on: MV4-11
Method in brief: as §2

SHI-1 [25] = tested on: SHI-1
Method in brief: as §2

THP-1 [26] = tested on: THP-1
Method in brief: as §2

NOMO-1 [27] = tested on: NOMO-1
Method in brief: as §2

LAMA-84 [28] = tested on: LAMA-84
Method in brief: as §2

HL-60 [29] = tested on: HL-60
Method in brief: as §2

HEL [30] = tested on: HEL
Method in brief: as §2

O=C([O-])CC(O)(C(=O)[O-])C(O)C(=O)[O-].[K+].[K+].[K+] (stereo not given) [Hydroxycitrate]
cell viability [%]
Details	1 nM	10 nM	100 nM	1000 nM	10000 nM
BV-173 [1]	80.2	95.7	89.1	104	105
HEL [15]	79.6	98.2	112	95.1	99.6
HL-60 [14]	55.8	96.6	92.9	75.4	103
K-562 [3]	81.6	98.8	102	110	108
KCL-22 [8]	86.5	109	104	84.7	88
KG-1 [2]	80	94.5	93.6	102	91.5
KU-812 [7]	94.4	98.4	105	97.3	92.4
LAMA-84 [13]	93	95.9	115	93.8	96.4
ML-2 [5]	90.3	95.8	78.1	104	97
MOLM-13 [4]	68.9	104	99.4	89.5	92.5
MV4-11 [9]	81.4	107	111	106	90.2
Mono-Mac-6 [6]	87.8	86.8	98	90.6	99.5
NOMO-1 [12]	83.1	101	99.1	95.8	102
SHI-1 [10]	80.8	112	92	100	88.6
THP-1 [11]	83.8	93.4	97.5	97.7	105

Details	IC50 (cell viability) [µM]
BV-173 [16]	> 10
HEL [30]	> 10
HL-60 [29]	> 10
K-562 [18]	> 10
KCL-22 [23]	> 10
KG-1 [17]	> 10
KU-812 [22]	> 10
LAMA-84 [28]	> 10
ML-2 [20]	> 10
MOLM-13 [19]	> 10
MV4-11 [24]	> 10
Mono-Mac-6 [21]	> 10
NOMO-1 [27]	> 10
SHI-1 [25]	> 10
THP-1 [26]	> 10
